In the supplement of paper PMC4862054:

What was measured:
Conditions in all cases: incubation time: 72 h
[1] = system: BT-474; assay: normalised viability (% of control), CellTiter-Blue; higher = more viable cells (about 100 = DMSO control)
Outline: (§1)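 The reported figure is normalised viability at a single listed concentration of the series. Breast cancer cell lines (20 µl suspension) went onto 384-well plates holding compound in 5 µl medium for 72 h. CellTiter-Blue (2.5 µl, 2 h, 37 °C) was read by fluorescence at 560/590 nm, and each plate was scaled to vehicle at 100 and a positive kill control at 0.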

[2] = system: BT-549; assay: as above
Outline: as §1

[3] = system: DU-4475; assay: as above
Outline: as §1

[4] = system: HCC1143; assay: as above
Outline: as §1

[5] = system: HCC1599; assay: as above
Outline: as §1

[6] = system: HCC1937; assay: as above
Outline: as §1

[7] = system: MDA-MB-436; assay: as above
Outline: as §1

[8] = system: BT-474; assay: drug sensitivity score (DSS), CellTiter-Blue viability (DSS (AUC-based score)); higher = stronger viability inhibition; extreme values may be limits of the assay
Method: (§2)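 DSRT with the CellTiter-Blue (resazurin reduction) viability readout, fluorescence 560/590 nm, 72 h incubation. Plates were normalised to DMSO and benzethonium chloride controls. DSS is computed from the area under the fitted dose-response curve (5 or 9 concentrations).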

[9] = system: BT-549; assay: as above
Method: as §2

[10] = system: CAL-120; assay: as above
Method: as §2

[11] = system: CAL-148; assay: as above
Method: as §2

[12] = system: CAL-51; assay: as above
Method: as §2

[13] = system: CAL-85-1; assay: as above
Method: as §2

[14] = system: DU-4475; assay: as above
Method: as §2

[15] = system: HCC1143; assay: as above
Method: as §2

[16] = system: HCC1599; assay: as above
Method: as §2

[17] = system: HCC1937; assay: as above
Method: as §2

[18] = system: HDQ-P1; assay: as above
Method: as §2

[19] = system: Hs578T; assay: as above
Method: as §2

[20] = system: MDA-MB-231; assay: as above
Method: as §2

[21] = system: MDA-MB-436; assay: as above
Method: as §2

[22] = system: MDA-MB-453; assay: as above
Method: as §2

[23] = system: MDA-MB-468; assay: as above
Method: as §2

[24] = system: MFM-223; assay: as above
Method: as §2

[25] = system: SK-BR-3; assay: as above
Method: as §2

CC[C@@H]1C(=O)OC[C@@H]1Cc1cncn1C [Pilocarpine]
normalised viability [%]
Conditions | [1] | [2] | [3] | [4] | [5] | [6] | [7]
12 nM | – | – | 103 | – | – | – | –
40 nM | 108 | 95.5 | – | 87.5 | 104 | 109 | 95.6
120 nM | – | – | 92.1 | – | – | – | –
400 nM | – | – | 107 | – | – | – | –
4000 nM | 158 | 114 | – | 90.3 | 92.2 | 107 | 95
40000 nM | 116 | 100 | – | 88.4 | 92.8 | 97.4 | 104

Conditions | drug sensitivity score
[8] | 0
[9] | 0
[10] | 0
[11] | 0
[12] | 0
[13] | 0
[14] | 0
[15] | 0
[16] | 0
[17] | 0
[18] | 0
[19] | 0
[20] | 0
[21] | 0
[22] | 0.965
[23] | 0
[24] | 0
[25] | 0

COc1cc(F)c(F)c(Nc2ccc(I)cc2F)c1NS(=O)(=O)C1(C[C@H](O)CO)CC1 [RDEA119]
normalised viability [%]
Conditions | [1] | [2] | [3] | [4] | [5] | [6] | [7]
3 nM | – | – | 91.4 | – | – | – | –
10 nM | 108 | 98.7 | – | 117 | 92.5 | 102 | 93.3
30 nM | – | – | 61.2 | – | – | – | –
100 nM | – | – | 28.2 | – | – | – | –
1000 nM | 103 | 87.5 | – | 62.8 | 78.6 | 72.4 | 103
10000 nM | 110 | 66.4 | – | 61.7 | 82 | 62.8 | 84.6

Conditions | drug sensitivity score
[8] | 0
[9] | 0
[10] | 7.36
[11] | 0
[12] | 6.65
[13] | 10.3
[14] | 28.1
[15] | 8.17
[16] | 0
[17] | 5.85
[18] | 11.4
[19] | 8.25
[20] | 18.7
[21] | 0
[22] | 5.64
[23] | 4.71
[24] | 5.52
[25] | 0
